According to the NIST ThermoML archive (doi:10.1021/je1001413):

Details: Liquid, Vibrating tube method

CC(C)CCCCCCCOC(=O)c1ccccc1C(=O)OCCCCCCCC(C)C
Details	mass density [kg/m3]
283.15 K, 100 kPa	974.5
283.15 K, 200 kPa	974.5
283.15 K, 400 kPa	974.6
283.15 K, 600 kPa	974.7
283.15 K, 800 kPa	974.9
283.15 K, 1010 kPa	975
283.15 K, 2000 kPa	975.5
283.15 K, 3020 kPa	976
283.15 K, 4000 kPa	976.6
283.15 K, 5000 kPa	977.1
283.15 K, 6000 kPa	977.7
283.15 K, 6980 kPa	978.2
283.15 K, 8010 kPa	978.7
283.15 K, 9020 kPa	979.3
283.15 K, 10030 kPa	979.8
283.15 K, 15000 kPa	982.4
283.15 K, 19970 kPa	985
283.15 K, 25030 kPa	987.3
283.15 K, 29980 kPa	989.8
283.15 K, 35030 kPa	992.1
283.15 K, 40000 kPa	994.5
283.15 K, 45030 kPa	996.6
283.15 K, 49980 kPa	998.8
283.15 K, 55030 kPa	1000.9
283.15 K, 59990 kPa	1002.6
283.15 K, 64990 kPa	1005.1
288.15 K, 100 kPa	970.7
288.15 K, 200 kPa	970.8
288.15 K, 420 kPa	970.9
288.15 K, 600 kPa	971
288.15 K, 790 kPa	971.1
288.15 K, 1000 kPa	971.2
288.15 K, 1990 kPa	971.7
288.15 K, 3020 kPa	972.3
288.15 K, 4010 kPa	972.9
288.15 K, 5000 kPa	973.4
288.15 K, 6010 kPa	974
288.15 K, 7020 kPa	974.5
288.15 K, 7980 kPa	975
288.15 K, 9000 kPa	975.5
288.15 K, 10000 kPa	976.1
288.15 K, 14990 kPa	978.7
288.15 K, 19970 kPa	981.4
288.15 K, 25000 kPa	983.8
288.15 K, 30000 kPa	986.4
288.15 K, 34990 kPa	988.8
288.15 K, 40020 kPa	991.1
288.15 K, 45000 kPa	993.3
288.15 K, 49980 kPa	995.7
288.15 K, 54980 kPa	997.7
288.15 K, 60000 kPa	999.9
288.15 K, 65000 kPa	1002
293.15 K, 100 kPa	967
293.15 K, 200 kPa	967.1
293.15 K, 400 kPa	967.2
293.15 K, 630 kPa	967.3
293.15 K, 790 kPa	967.4
293.15 K, 1000 kPa	967.5
293.15 K, 2010 kPa	968.1
293.15 K, 3020 kPa	968.7
293.15 K, 4020 kPa	969.2
293.15 K, 4970 kPa	969.8
293.15 K, 5980 kPa	970.3
293.15 K, 7020 kPa	970.9
293.15 K, 8000 kPa	971.5
293.15 K, 9020 kPa	972
293.15 K, 10010 kPa	972.6
293.15 K, 15010 kPa	975.2
293.15 K, 20000 kPa	977.9
293.15 K, 25030 kPa	980.5
293.15 K, 30020 kPa	983
293.15 K, 35030 kPa	985.4
293.15 K, 40010 kPa	987.8
293.15 K, 44980 kPa	990.1
293.15 K, 50020 kPa	992.4
293.15 K, 55020 kPa	994.6
293.15 K, 60020 kPa	996.8
293.15 K, 65000 kPa	998.9
298.15 K, 100 kPa	963.4
298.15 K, 200 kPa	963.4
298.15 K, 410 kPa	963.6
298.15 K, 620 kPa	963.7
298.15 K, 820 kPa	963.8
298.15 K, 1000 kPa	963.9
298.15 K, 2020 kPa	964.5
298.15 K, 3040 kPa	965
298.15 K, 4030 kPa	965.7
298.15 K, 4980 kPa	966.2
298.15 K, 6070 kPa	966.8
298.15 K, 7020 kPa	967.3
298.15 K, 8040 kPa	967.9
298.15 K, 9040 kPa	968.5
298.15 K, 10030 kPa	969
298.15 K, 15010 kPa	971.7
298.15 K, 19990 kPa	974.4
298.15 K, 25000 kPa	977
298.15 K, 30020 kPa	979.6
298.15 K, 35000 kPa	982.1
298.15 K, 40020 kPa	984.5
298.15 K, 44970 kPa	986.9
298.15 K, 49990 kPa	989.2
298.15 K, 54970 kPa	991.4
298.15 K, 60000 kPa	993.7
298.15 K, 65020 kPa	995.8
303.15 K, 100 kPa	959.7
303.15 K, 200 kPa	959.8
303.15 K, 400 kPa	959.9
303.15 K, 580 kPa	960
303.15 K, 800 kPa	960.2
303.15 K, 1000 kPa	960.3
303.15 K, 2000 kPa	960.9
303.15 K, 2990 kPa	961.4
303.15 K, 4000 kPa	962
303.15 K, 5000 kPa	962.6
303.15 K, 6000 kPa	963.2
303.15 K, 7000 kPa	963.8
303.15 K, 7980 kPa	964.3
303.15 K, 9000 kPa	964.9
303.15 K, 10020 kPa	965.5
303.15 K, 14970 kPa	968.2
303.15 K, 20010 kPa	971
303.15 K, 25030 kPa	973.6
303.15 K, 30020 kPa	976.3
303.15 K, 35000 kPa	978.8
303.15 K, 40000 kPa	981.2
303.15 K, 45000 kPa	983.6
303.15 K, 50010 kPa	986
303.15 K, 54980 kPa	988.3
303.15 K, 60000 kPa	990.5
303.15 K, 64990 kPa	992.7
308.15 K, 100 kPa	956.2
308.15 K, 200 kPa	956.2
308.15 K, 410 kPa	956.4
308.15 K, 610 kPa	956.5
308.15 K, 800 kPa	956.6
308.15 K, 1000 kPa	956.7
308.15 K, 2010 kPa	957.3
308.15 K, 3020 kPa	957.9
308.15 K, 4000 kPa	958.5
308.15 K, 5000 kPa	959.1
308.15 K, 6000 kPa	959.7
308.15 K, 7020 kPa	960.3
308.15 K, 8000 kPa	960.8
308.15 K, 9020 kPa	961.4
308.15 K, 10000 kPa	962
308.15 K, 15010 kPa	964.8
308.15 K, 19990 kPa	967.6
308.15 K, 25000 kPa	970.3
308.15 K, 30010 kPa	973
308.15 K, 35000 kPa	975.5
308.15 K, 39990 kPa	978
308.15 K, 44990 kPa	980.4
308.15 K, 50010 kPa	982.9
308.15 K, 55000 kPa	985.2
308.15 K, 60000 kPa	987.4
308.15 K, 65000 kPa	989.7
